The record followed here is patent publication EP4671247A1, “SUBSTITUTED PYRAZOLOPYRIMIDINE COMPOUND AND PHARMACEUTICAL USE THEREOF” (Japan Tobacco Inc., priority 2023, dated 2024).

Where two headings read alike, the source gives them in different places.

The assay concerns the target T1, NLRP3 inflammasome (Homo sapiens, UniProt Q96P20).
T1 construct: host or cells: THP1-Null cells (PMA-differentiated, LPS-primed, nigericin-stimulated)
As to the kind of experiment: Evaluation of NLRP3 inflammasome inhibitory activity (inhibition of IL-1β production in LPS/Nigericin-stimulated THP1-Null cells, AlphaLISA). In kind it is cell-based. Conditions: for IC50: PMA, 1 µg/mL Lipopolysaccharides 3 hours, Nigericin 7.5 µmol/L 1.5 hours. In a few lines:
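THP1-Null cells were primed with 1 µg/mL LPS, then given test compound and stimulated with nigericin. IL-1β in the culture supernatant was quantified by AlphaLISA. Inhibition was calculated with blank wells set as 100% and control wells as 0%.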
For orientation: Bead proximity is the source of the signal in Alpha formats.

Where [1] appears, read: IL-1β production in THP1-Null cells, read-out: IC50.
Where [2] appears, read: IL-1β production in THP1-Null cells.

T1 sequence (Q96P20 whole entry): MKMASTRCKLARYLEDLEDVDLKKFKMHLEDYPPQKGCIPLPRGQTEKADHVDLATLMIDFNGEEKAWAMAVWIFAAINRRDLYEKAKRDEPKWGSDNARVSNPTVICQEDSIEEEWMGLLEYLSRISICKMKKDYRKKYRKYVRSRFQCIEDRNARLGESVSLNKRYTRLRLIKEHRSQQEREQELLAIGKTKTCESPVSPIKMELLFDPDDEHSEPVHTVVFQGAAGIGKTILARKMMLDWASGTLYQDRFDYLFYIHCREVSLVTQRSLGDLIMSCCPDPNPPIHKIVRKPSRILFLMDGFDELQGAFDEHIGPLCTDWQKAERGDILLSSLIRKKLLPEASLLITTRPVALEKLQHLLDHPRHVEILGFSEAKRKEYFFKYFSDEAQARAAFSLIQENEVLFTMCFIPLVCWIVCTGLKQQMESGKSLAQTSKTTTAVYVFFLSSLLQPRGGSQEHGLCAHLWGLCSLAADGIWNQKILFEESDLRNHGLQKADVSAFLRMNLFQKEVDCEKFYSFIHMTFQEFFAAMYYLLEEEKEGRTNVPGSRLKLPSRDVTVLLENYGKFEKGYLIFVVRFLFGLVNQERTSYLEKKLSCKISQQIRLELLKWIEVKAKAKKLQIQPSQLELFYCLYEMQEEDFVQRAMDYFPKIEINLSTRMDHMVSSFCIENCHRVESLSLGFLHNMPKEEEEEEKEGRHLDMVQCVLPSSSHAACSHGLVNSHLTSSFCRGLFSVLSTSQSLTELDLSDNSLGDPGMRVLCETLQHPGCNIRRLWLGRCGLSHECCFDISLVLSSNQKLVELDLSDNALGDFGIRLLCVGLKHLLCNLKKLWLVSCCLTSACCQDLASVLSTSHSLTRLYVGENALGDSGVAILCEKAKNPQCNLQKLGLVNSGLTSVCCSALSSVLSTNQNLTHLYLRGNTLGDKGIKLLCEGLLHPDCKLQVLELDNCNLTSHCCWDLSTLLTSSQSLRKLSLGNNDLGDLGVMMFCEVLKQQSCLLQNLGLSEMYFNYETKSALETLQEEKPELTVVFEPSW

One may read the IC50 as the concentration at which inhibition is half-maximal. Take `Cc1cc(OC(F)F)cc(C)c1-n1cc2c(=O)[nH]c(C(C)O)nc2n1` (racemic) [Example 141, (RS)-2-{4-(difluoromethoxy)-2,6-dimethylphenyl}-6-(1-hydroxyethyl)-2,5-dihydro-4H-pyrazolo[3,4-d]pyrimidin-4-one]: the half-inhibitory concentration (IC50) under setting [1] came to 61 nM.

With `CCc1nc2nn(-c3c(C)cc(C4CC4)cc3C)cc2c(=O)[nH]1` [Example 23], under setting [1], the 50% inhibitory concentration (IC50) turned out to be 24 nM.

`Cc1cc(C2CC2)cc(C)c1-n1cc2c(=O)[nH]c(C3CCOC3)nc2n1` (racemic) [Example 29] yielded a 50% inhibitory concentration (IC50) under setting [2] of 9 nM.

`Cc1cc(OC(F)F)cc(C)c1-n1cc2c(=O)[nH]c([C@@H]3C[C@H]3F)nc2n1` (single isomer, unassigned) [Example 172] gave a half-maximal inhibitory concentration (IC50) under setting [2] of 8 nM.

In turn, `Cc1cc(Br)cc(C)c1-n1cc2c(=O)[nH]c(C34CC(C3)C4)nc2n1` [Example 60] returned an IC50 (IC50, IL-1β production in THP1-Null cells) of 60 nM.

As a reminder, the inhibition is the change of the read-out against control, counted positive when it falls. On to `Cc1cc(OC(F)F)cc(C)c1-n1cc2c(=O)[nH]c(C3=COCC3)nc2n1` [Example 175], for which the inhibition at 0.002 µM (test compound at 0.002 µM, IL-1β production in THP1-Null cells) was 54%.

For `CCOc1nc(C)nc2nn(-c3ccc(C)cc3C)cc12` [Example 11], the inhibition at 24 µM (test compound at 24 µM, IL-1β production in THP1-Null cells) turned out to be 43%.

Turning to `Cc1cc(OC(F)F)cc(C)c1-n1cc2c(=O)[nH]c(C3(O)CCOCC3F)nc2n1` (single isomer, unassigned) [Example 174], under setting [1], the concentration for half-maximal inhibition (IC50) is 30 nM.

For `Cc1ccc(-n2cc3c(=O)[nH]c(C4CCOCC4)nc3n2)c(C)c1` [Example 33], the 50% inhibitory concentration (IC50) under setting [1] came to 68 nM.

For the molecule `CCc1nc2nn(-c3c(C)cc(C(C)(F)F)cc3C)cc2c(=O)[nH]1` [Example 181], the IC50 under setting [1] came out at 18 nM.

`Cc1ccc(-n2cc3c(=O)[nH]c(C)nc3n2)c(C)c1` [Example 4]: under setting [1], the half-maximal inhibitory concentration (IC50) stood at 540 nM.

With `Cc1cc(C2CC2)cc(C)c1-n1cc2c(=O)[nH]c(C3CC(F)(F)CO3)nc2n1` (racemic) [Example 190], the IC50 under setting [1] came to 41 nM.

Regarding `Cc1cc(C2CC2)cc(C)c1-n1cc2c(=O)[nH]c(C3CC3F)nc2n1` (racemic) [Example 93], the half-maximal inhibitory concentration (IC50) under setting [1] turned out to be 8 nM.

Turning to `Cc1ccc(-n2cc3c(=O)[nH]c(C4CCCO4)nc3n2)c(C)c1` (racemic) [Example 31], the half-inhibitory concentration (IC50) under setting [1] stood at 790 nM.

For `Cc1cc(C2CC2)cc(C)c1-n1cc2c(=O)[nH]c(C(=O)NC3COC3)nc2n1` [Example 201], the concentration for half-maximal inhibition (IC50) under setting [1] worked out at 740 nM.

Regarding `Cc1cc(OC(F)F)cc(C)c1-n1cc2c(=O)[nH]c(C3(F)CC3)nc2n1` [Example 159], the IC50 under setting [1] came to 57 nM.

Turning to `Cc1cc(C2CC2)cc(C)c1-n1cc2c(=O)[nH]c(C(=O)NCC(F)F)nc2n1` [Example 204], under setting [1], the half-inhibitory concentration (IC50) is 50 nM.

Turning to `Cc1cc(Br)cc(C)c1-n1cc2c(=O)[nH]c(C3CC3C(N)=O)nc2n1` (racemic) [Example 150], under setting [1], the 50% inhibitory concentration (IC50) stood at 18 nM.

As to `COC1CC(c2nc3nn(-c4c(C)cc(Br)cc4C)cc3c(=O)[nH]2)C1` (single isomer, unassigned) [Example 121], under setting [2], the IC50 came to 38 nM.

In the case of `Cc1cc(Br)cc(C)c1-n1cc2c(=O)[nH]c(C3(F)CCOCC3)nc2n1` [Example 97], the IC50 under setting [1] stood at 24 nM.

Turning to `COCc1c2c(=O)[nH]c(C3CC3)nc2nn1-c1c(C)cc(C2CC2)cc1C` [Example 88, 6-cyclopropyl-2-(4-cyclopropyl-2,6-dimethylphenyl)-3-(methoxymethyl)-2,5-dihydro-4H-pyrazolo[3,4-d]pyrimidin-4-one], the 50% inhibitory concentration (IC50) under setting [1] is 18 nM.

With `Cc1nn(C2CCC2)c(C)c1-n1cc2c(=O)[nH]c(C3CC3)nc2n1` [Example 59], the concentration for half-maximal inhibition (IC50) under setting [1] turned out to be 1700 nM.

As to `Cc1cc(C2CC2)cc(C)c1-n1cc2c(=O)[nH]c(C34CC(CO)(CO3)C4)nc2n1` [Example 95], under setting [1], the half-maximal inhibitory concentration (IC50) is 42 nM.

In the case of `Cc1cc(C(C)(F)F)cc(C)c1-n1cc2c(=O)[nH]c(C3(F)CCOC3)nc2n1` (single isomer, unassigned) [Example 129], half-maximal inhibition under setting [2] (IC50) was put at 50 nM.

`Cc1cc(OC(F)F)cc(C)c1-n1cc2c(=O)[nH]c(C3CCOCC3)nc2n1` [Example 64]: the half-maximal inhibitory concentration (IC50) under setting [1] was determined as 22 nM.

On to `Cc1cc(C2CC2)cc(C)c1-n1cc2c(=O)[nH]c(C3CCOCCO3)nc2n1` (single isomer, unassigned) [Example 179, 2-(4-cyclopropyl-2,6-dimethylphenyl)-6-(1,4-dioxepan-5-yl)-2,5-dihydro-4H-pyrazolo[3,4-d]pyrimidin-4-one], for which the IC50 under setting [1] was 51 nM.

For the molecule `COC(=O)Cn1c(C)nc2nn(-c3ccc(C)cc3C)cc2c1=O` [Example 14], the inhibition at 2.4 µM (test compound at 2.4 µM, IL-1β production in THP1-Null cells) is -13%.

With `Cc1cc(C2CC2)cc(C)c1-n1cc2c(=O)[nH]c(C3CCOCCO3)nc2n1` (single isomer, unassigned) [Example 178, 2-(4-cyclopropyl-2,6-dimethylphenyl)-6-(1,4-dioxepan-5-yl)-2,5-dihydro-4H-pyrazolo[3,4-d]pyrimidin-4-one], the IC50 under setting [1] turned out to be 11 nM.

Take `Cc1cc(Br)cc(C)c1-n1cc2c(=O)[nH]c(C(C)(C)F)nc2n1` [Example 70]: the half-maximal inhibitory concentration (IC50) under setting [1] was 130 nM.

Consider `Cc1cc(C2CC2)cc(C)c1-n1cc2c(=O)[nH]c(C3CCC3)nc2n1` [Example 22], for which the IC50 under setting [1] amounted to 12 nM.

`Cc1cc(C2CC2)cc(C)c1-n1cc2c(=O)[nH]c(C3CCOC3)nc2n1` (single isomer, unassigned) [Example 50] returned an IC50 under setting [2] of 5 nM.

As for `Cc1cc(Br)cc(C)c1-n1cc2c(=O)[nH]c(Cn3cccn3)nc2n1` [Example 62], the IC50 under setting [1] amounted to 230 nM.

As to `Cc1cc(C(C)(F)F)cc(C)c1-n1cc2c(=O)[nH]c(C3(F)CC3)nc2n1` [Example 162], the IC50 under setting [1] is 57 nM.

On to `Cc1cc(Br)cc(C)c1-n1cc2c(=O)[nH]c(C3CCOCC3)nc2n1` [Example 81], for which the IC50 under setting [1] worked out at 4 nM.

In the case of `Cc1cc(C2CC2)cc(OC(F)F)c1-n1cc2c(=O)[nH]c(C3CC3)nc2n1` [Example 75], under setting [1], the half-maximal inhibitory concentration (IC50) was 11 nM.

Take `Cc1cc(C2CC2)cc(C)c1-n1cc2c(=O)[nH]c(C(N)=O)nc2n1` [Example 203]: under setting [1], the IC50 stood at 290 nM.

With `Cc1cc(OC(F)F)cc(C)c1-n1cc2c(=O)[nH]c(C3CC(C)OC(C)C3)nc2n1` (stereo not shown) [Example 89], the IC50 under setting [1] was determined as 450 nM.

With `O=c1[nH]c(C2CC2)nc2nn(-c3cc4c(cc3Cl)OCCC4)cc12` [Example 211], under setting [1], the IC50 is 27 nM.

For the molecule `Cc1cc(Br)cc(C)c1-n1cc2c(=O)[nH]c(C3CCOCC3O)nc2n1` (single isomer, unassigned) [Example 104], the IC50 under setting [1] came out at 15 nM.

Regarding `CNC(=O)c1nc2nn(-c3c(C)cc(C(C)(F)F)cc3C)cc2c(=O)[nH]1` [Example 207], under setting [1], the half-maximal inhibitory concentration (IC50) amounted to 270 nM.
